What was measured:
NSD1 SET domain [1] = biological target: T1, NSD1 SET domain (Homo sapiens, UniProt Q96L73); format: binding; settings: 150 μM 15N NSD1 SET, 1H-15N HSQC
T1 sequence (Q96L73 1852-2085): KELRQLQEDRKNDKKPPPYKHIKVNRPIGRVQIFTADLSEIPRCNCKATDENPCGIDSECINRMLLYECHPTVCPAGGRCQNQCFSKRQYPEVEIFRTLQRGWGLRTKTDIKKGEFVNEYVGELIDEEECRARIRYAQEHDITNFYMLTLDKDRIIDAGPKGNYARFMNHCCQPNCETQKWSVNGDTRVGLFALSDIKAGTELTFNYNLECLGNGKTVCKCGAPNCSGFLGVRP

NSD1 SET domain [2] = biological target: T2, NSD1 SET domain (Homo sapiens, UniProt Q96L73); assay: MS covalent engagement and kinetics, NSD1 SET; format: binding; settings: 1 μM NSD1 SET, 50 μM compound, 18 h, 32 °C
T2 sequence (Q96L73 1852-2105): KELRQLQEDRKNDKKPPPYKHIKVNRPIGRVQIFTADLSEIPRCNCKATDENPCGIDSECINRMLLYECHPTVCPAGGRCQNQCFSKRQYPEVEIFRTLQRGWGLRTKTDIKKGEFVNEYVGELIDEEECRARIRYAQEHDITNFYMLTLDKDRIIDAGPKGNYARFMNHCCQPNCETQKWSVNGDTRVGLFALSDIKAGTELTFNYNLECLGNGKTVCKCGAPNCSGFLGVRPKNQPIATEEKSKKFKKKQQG

| covalent binding by MS (NSD1 SET domain [2]) | SMILES | chemical shift perturbations / binding by NMR (NSD1 SET domain [1]) |
| --- | --- | --- |
| lack covalent binding | NC(=O)/C=C/c1cc(O)c2nc(N)sc2c1 [Compound 9] | only weakly interact |
| – | COc1cc(Br)cc2sc(N)nc12 [Compound 8] | less pronounced chemical shift perturbations |
